Key:
[1] = Inhibition of soybean arachidonate 15-lipoxygenase; design: species or system Glycine max
[2] = test system: Radical scavenging activity; experiment: Antioxidant activity assessed as DPPH radical scavenging activity at 667 uM after 15 mins; assay type: functional

Row | Compound | IC50 [1] [µM] | Activity [2] [%]
1 | N#Cc1ccn2c(-c3ccccc3)c(-c3ccccc3)c(OS(=O)c3cccs3)c2c1 (centres undefined) | 21 | –
2 | Cc1cc(C)c(S(=O)(=O)Oc2c(-c3ccccc3)c(-c3ccccc3)n3ccc(C#N)cc23)c(C)c1 | 17 | –
3 | CC(C)c1ccc(S(=O)(=O)Oc2c(-c3ccccc3)c(-c3ccccc3)n3ccc(C#N)cc23)cc1 | 16 | –
4 | N#Cc1ccn2c(-c3ccccc3)c(-c3ccccc3)c(OS(=O)(=O)c3ccccc3)c2c1 | 24 | –
5 | CS(=O)(=O)Oc1c(-c2ccccc2)c(-c2ccccc2)n2ccc(C#N)cc12 | 22 | –
6 | Cc1ccc(-c2cc3cc(C#N)ccn3c2-c2ccc(C)cc2)cc1 | 27 | –
7 | COc1ccccc1COc1c(-c2ccccc2)c(-c2ccccc2)n2ccc(C#N)cc12 | 29 | 1.6
8 | CN(C)S(=O)(=O)Oc1c(-c2ccccc2)c(-c2ccccc2)n2ccc(C#N)cc12 | 25 | –
9 | N#Cc1ccn2c(-c3ccccc3)c(-c3ccccc3)c(OCOC(COCc3ccccc3)COCc3ccccc3)c2c1 | 31 | 4.2
10 | N#Cc1ccn2c(-c3ccccc3)c(-c3ccccc3)c(OCc3cccc(Cl)c3)c2c1 | 31 | -0.1
11 | Cc1ccc(-c2c(OS(=O)(=O)c3ccc(C)cc3)c3cc(C#N)ccn3c2-c2ccc(C)cc2)cc1 | 20 | –
12 | N#Cc1ccn2c(-c3ccccc3)c(-c3ccccc3)c(OCc3ccccc3)c2c1 | 31 | 0.8
13 | COc1ccc(S(=O)(=O)Oc2c(-c3ccc(C)cc3)c(-c3ccc(C)cc3)n3ccc(C#N)cc23)cc1 | 25 | –
14 | Cc1ccc(S(=O)(=O)Oc2c(-c3ccccc3)c(-c3ccccc3)n3ccc(C=O)cc23)cc1 | 20 | –
15 | N#Cc1ccn2c(-c3ccccc3)c(-c3ccccc3)c(OS(=O)(=O)c3ccc(C(F)(F)F)cc3)c2c1 | 23 | –
16 | Cc1ccc(S(=O)(=O)Oc2c(-c3ccc(Cl)cc3)c(-c3ccc(Cl)cc3)n3ccc(C#N)cc23)cc1 | 20 | –
17 | CCc1c(OS(=O)(=O)c2ccc(C)cc2)c2cc(C#N)ccn2c1CC | 29 | –
18 | CCS(=O)(=O)Oc1c(-c2ccccc2)c(-c2ccccc2)n2ccc(C#N)cc12 | 28 | –

Row | Compound | IC50 [1] [µM] | Activity [2] [%]
19 | COc1ccc(-c2c(OS(=O)(=O)c3ccc(C)cc3)c3cc(C#N)ccn3c2-c2ccc(OC)cc2)cc1 | 24 | –
20 | COc1ccc(OC)c(S(=O)(=O)Oc2c(-c3ccccc3)c(-c3ccccc3)n3ccc(C#N)cc23)c1 | 15 | –
21 | N#Cc1ccn2c(-c3ccccc3)c(-c3ccccc3)c(OS(=O)(=O)c3ccc(Cl)cc3)c2c1 | 22 | –
22 | Cc1ccc(S(=O)(=O)Oc2c(-c3ccc(F)cc3)c(-c3ccc(F)cc3)n3ccc(C#N)cc23)cc1 | 22 | –
23 | CS(=O)(=O)c1ccc(S(=O)(=O)Oc2c(-c3ccccc3)c(-c3ccccc3)n3ccc(C#N)cc23)cc1 | 24 | –
24 | Cc1ccc(S(=O)(=O)Oc2c(-c3ccccc3)c(-c3ccccc3)n3ccccc23)cc1 | 25 | –
25 | CC(=O)c1ccn2c(-c3ccccc3)c(-c3ccccc3)c(OS(=O)(=O)c3ccc(C)cc3)c2c1 | 23 | –
26 | COc1ccc(S(=O)(=O)Oc2c(-c3ccccc3)c(-c3ccccc3)n3ccc(C#N)cc23)cc1 | 25 | –
27 | N#Cc1ccn2c(-c3ccc(F)cc3)c(-c3ccc(F)cc3)cc2c1 | 30 | –
28 | Cc1ccc(S(=O)(=O)c2c(-c3ccccc3)c(-c3ccccc3)n3ccc(C#N)cc23)cc1 | 29 | –
29 | N#Cc1ccn2c(-c3ccc(Cl)cc3)c(-c3ccc(Cl)cc3)cc2c1 | 33 | –
30 | CC(C)S(=O)(=O)Oc1c(-c2ccccc2)c(-c2ccccc2)n2ccc(C#N)cc12 | 42 | –
31 | Cc1ccc(S(=O)(=O)Oc2c(-c3ccccc3)c(-c3ccccc3)n3ccc(C#N)cc23)cc1C | 19 | –
32 | CCCCc1c(OS(=O)(=O)c2ccc(C)cc2)c2cc(C#N)ccn2c1CCCC | 30 | –
33 | COc1ccc(S(=O)(=O)Oc2c(-c3ccccc3)c(-c3ccccc3)n3ccc(C#N)cc23)c(OC)c1 | 27 | –
34 | N#Cc1ccn2c(-c3ccccc3)c(-c3ccccc3)c(OS(=O)c3ccsc3)c2c1 (centres undefined) | 23 | –
35 | Cc1ccccc1S(=O)(=O)Oc1c(-c2ccccc2)c(-c2ccccc2)n2ccc(C#N)cc12 | 22 | –

Source: ChEMBL document CHEMBL1914343, “Recent progress in synthesis and bioactivity studies of indolizines” (Eur J Med Chem, 2011)
